Results: patent publication US5068354A, “Epoxysuccinic acid derivatives” (Taisho Pharmaceutical Co., Ltd., priority 1989, dated 1991)

Assays:
Assay type in all cases: biochemical
CANP (μCANP, Calpain I) = target: T1, CANP (μCANP, Calpain I) (Homo sapiens, UniProt P07384); test: Inhibitory Activity against CANP; settings: alkali-denatured casein, pH 7.5, preincubated 30° C. 5 min, incubation 20 min, read-out: concentration of the test drug required for 50% inhibition (IC50)
T1 construct: purchased Nacalai Tesque Inc
T1 sequence (P07384 1-714): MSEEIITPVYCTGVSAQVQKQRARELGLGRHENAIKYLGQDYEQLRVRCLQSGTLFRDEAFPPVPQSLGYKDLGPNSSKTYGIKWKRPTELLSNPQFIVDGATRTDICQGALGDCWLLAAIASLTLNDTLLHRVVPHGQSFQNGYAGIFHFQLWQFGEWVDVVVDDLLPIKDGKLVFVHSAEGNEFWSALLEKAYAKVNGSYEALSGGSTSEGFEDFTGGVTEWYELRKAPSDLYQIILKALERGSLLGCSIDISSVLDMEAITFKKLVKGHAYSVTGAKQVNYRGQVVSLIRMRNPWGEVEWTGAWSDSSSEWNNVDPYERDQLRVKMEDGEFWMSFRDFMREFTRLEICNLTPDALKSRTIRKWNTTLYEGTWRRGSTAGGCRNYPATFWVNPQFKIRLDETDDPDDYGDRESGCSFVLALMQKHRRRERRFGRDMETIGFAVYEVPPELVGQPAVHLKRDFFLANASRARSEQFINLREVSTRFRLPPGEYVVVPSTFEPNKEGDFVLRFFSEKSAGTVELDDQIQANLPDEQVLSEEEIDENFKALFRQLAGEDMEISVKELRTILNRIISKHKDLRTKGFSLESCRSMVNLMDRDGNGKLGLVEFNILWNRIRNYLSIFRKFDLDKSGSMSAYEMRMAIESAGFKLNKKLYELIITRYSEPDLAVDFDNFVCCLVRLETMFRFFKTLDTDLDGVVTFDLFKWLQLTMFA
T1 sequence (P04632 1-268 partner): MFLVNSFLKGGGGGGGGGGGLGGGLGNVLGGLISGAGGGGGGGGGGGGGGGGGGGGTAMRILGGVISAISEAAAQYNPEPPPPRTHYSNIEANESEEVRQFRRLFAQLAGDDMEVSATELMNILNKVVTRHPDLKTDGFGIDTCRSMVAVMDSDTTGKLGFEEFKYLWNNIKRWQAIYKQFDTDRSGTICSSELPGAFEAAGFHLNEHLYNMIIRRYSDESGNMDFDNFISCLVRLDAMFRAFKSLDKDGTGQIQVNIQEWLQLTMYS
Experimental: Test example 1 [Inhibitory Activity against CANP]
The activity was measured according to the method of S. Ishiura et al [J. Biochem., vol. 84, page 225 (1978)].
Each of 0.45 ml of the reaction solutions containing 25 mM 2-mercaptoethanol, 5 mM calcium chloride, 0.1 M sodium glycerophosphate-HCl (pH 7.5), 0.24% alkali-denatured casein, 1% dimethyl sulfoxide and various concentrations of the test drug was preincubated at 30° C. for 5 minutes, and 5 μg of μCANP (50 μg) (Calpain I, Nacalai Tesque Inc.) was added or starting the reaction. After incubation at 30° C. for 20 minutes, the reaction was stopped by addition of 0.5 ml of 10% trichloroacetic acid. After allowing to stand at room temperature for 60 minutes, the mixture was centrifuged at 3000×g for 5 minutes, and the absorbance at 280 nm of the supernatant was determined. The remaining activity was obtained by reducing the blank value which was obtained in a similar manner to the above but adding 10% trichloroacetic acid prior to addition of μCANP from the above value. The concentration of the test drug required for 50% inhibition (IC50) was calculated from the inhibition rate obtained using the value which was measured in a similar manner to the above but without the test drug. The IC50 value of the compound obtained in Example 5 was more than 200,000 nM.

papain = target: T2, papain (Carica papaya, UniProt P00784); test: Inhibitory Activity against Papain; settings: pH 6.8, preincubated 40° C. 3 min, incubation 10 min, read-out: concentration of the test drug required for 50% inhibition (IC50)
T2 construct: purchased Sigma Chemical Co
T2 sequence (P00784 134-345): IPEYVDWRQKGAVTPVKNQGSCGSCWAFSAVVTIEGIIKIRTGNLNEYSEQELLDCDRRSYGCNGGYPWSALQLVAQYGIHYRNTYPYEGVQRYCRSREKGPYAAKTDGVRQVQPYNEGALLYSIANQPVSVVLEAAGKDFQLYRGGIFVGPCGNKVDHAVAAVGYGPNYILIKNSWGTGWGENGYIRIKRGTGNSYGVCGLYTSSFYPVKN
Experimental: Test example 2 [Inhibitory Activity against Papain]
The activity was measured according to the method of A.J. Barrett et al [Biochem. J., vol. 201, page 189, (1982)].
To each of 0.95 ml of the reaction solutions containing 2.5 mM 2-mercaptoethanol, 1 mM disodium ethylenediaminetetraacetate, 0.1 M sodium potassium phosphate (pH 6.8), 0.1% brij-35 (Nacalai Tesque Inc.), 1% dimethyl sulfoxide and the various concentrations of the test drug was added 25 μl of 400 nM papain solution (Sigma Chemical Co.), and the mixture was preincubated for 40° C. for 3 minutes, after which 25 μof 200 μM benzyloxycarbonyl-L-phenylaranyl-L-arginine 4-methyl-coumaryl-7-amide (Peptide Institute Inc.) was added for starting the reaction. After incubation at 40° C. for 10 minutes, the reaction was stopped by addition of 1 ml of 100 mM sodium chloroacetate in 100 mM sodium acetate (pH 4.3). The fluorescence of the liberated 7-amino-4-methylcoumarine was determined using a Shimazu fluorimeter RF-5000 with excitation at 380 nm and emission measured at 440 nm. The concentration of the test drug required for 50% inhibition (IC50) was calculated from the inhibiting rate calculated using the value which was measured in a similar manner to the above but without the test drug.

cathepsin B = test: Inhibitory Activity against Cathepsin B; settings: pH 6.0, preincubated 40° C. 10 min, incubation 10 min
Experimental: The activity was measured according to the method of A.J. Barrett et al [Biochem. J., vol.
To each of 0.95 ml of the reaction solutions containing 2.5 mM 2-mercaptoethanol, 1 mM disodium ethylenediaminetetraacetate, 0.1 M sodium potassium phosphate buffer (pH 6.0), 0.1% brij-35 (Nacalai Tesque Inc.), 1% dimethyl sulfoxide and different concentrations of the test drug was added 25 μl of 200 nM cathepsin B solution (Sigma Chemical Co.), and the mixture was preincubated for 40° C. for 10 minutes, after which 25 μl of 200 µM benzyloxycarbonyl L-phenylaranyl-L-arginine 4-methylcoumaryl-7-amide (Peptide Institute Inc.) was added for starting the reaction. After incubation at 40° C. for 10 minutes, the reaction was stopped by addition of 1 ml of 100 mM sodium chloroacetate in 100 mM sodium acetate (pH 4.3) The fluorescence of the liberated 7-amino-4-methylcoumarine was determined using a Shimazu fluorimeter RP-5000 with excitation at 380 n and emission measured at 440 nm. […] Chosen as a comparative drug is N-(L-3-trans-carboxy-oxirane-2-carbonyl)-L-isoleucyl-L-proline methyl ester which is included within the structural formula of the above U.K. Patent and is the closest compound to the compound of formula I in the structure.

SMILES | IC50 (CANP (μCANP, Calpain I)) [µM] | IC50 (papain) [µM] | IC50 (cathepsin B) [nM]
CCOC(=O)[C@H]1O[C@@H]1C(=O)N[C@H](C(=O)N1CCC[C@H]1C(=O)O)[C@@H](C)CC [Example 5, N-(L-3-trans-ethoxycarbonyl-oxirane-2-carbonyl)-L-isoleucyl-L-proline] | > 200 | 16 | 120
CC[C@H](C)[C@H](NC(=O)[C@H]1O[C@@H]1C(=O)O)C(=O)N1CCC[C@H]1C(=O)OC [Reference Example, N-(L-3-trans-carboxyoxirane-2-carbonyl)-L-isoleucyl-L-proline methyl ester, reference compound] | – | – | 8800
